Reference: ChEMBL document CHEMBL1201862, “PubChem BioAssay data set” (2004)
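Tested at 5 concentrations; 48 h exposure; 96-well plates; endpoints linearly interpolated, else capped at highest concentration. GI50 marks 50% less growth.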 The source made the active and inactive calls. Rule as the data show it: active = GI50 up to about 1.1 µM and inactive = higher.

Assays:
Test in all cases: DTP human tumour cell line panel, 48 h
[1] = system: A498
[2] = system: A549
[3] = system: BT-549
[4] = system: CAKI-1
[5] = system: CCRF-CEM
[6] = system: DMS-273
[7] = system: DU-145
[8] = system: HCT-15
[9] = system: HOP-62
[10] = system: HOP-92
[11] = system: MDA-N
[12] = system: OVCAR-3
[13] = system: OVCAR-4
[14] = system: OVCAR-5
[15] = system: PC-3
[16] = system: SK-MEL-28
[17] = system: SNB-19
[18] = system: SNB-75
[19] = system: SR
[20] = system: SW-620

Structure (SMILES): CC(C)OC(=O)Nc1c([N+](=O)[O-])cc(C(F)(F)F)cc1[N+](=O)[O-]
- GI50 [1]: > 100 µM (inactive)
- GI50 [2]: > 100 µM (inactive)
- GI50 [3]: > 100 µM (inactive)
- GI50 [4]: > 100 µM (inactive)
- GI50 [5]: > 100 µM (inactive)
- GI50 [6]: > 100 µM (inactive)
- GI50 [7]: > 100 µM (inactive)
- GI50 [8]: > 100 µM
- GI50 [9]: 93.3 µM (inactive)
- GI50 [10]: 33 µM (inactive)
- GI50 [11]: > 100 µM (inactive)
- GI50 [12]: > 100 µM (inactive)
- GI50 [13]: > 100 µM (inactive)
- GI50 [14]: > 100 µM (inactive)
- GI50 [15]: > 100 µM (inactive)
- GI50 [16]: > 100 µM (inactive)
- GI50 [17]: 41.1 µM (inactive)
- GI50 [18]: 5.38 µM (inactive)
- GI50 [19]: > 67.5 µM (inactive)
- GI50 [20]: > 100 µM (inactive)

Structure (SMILES): C/C=C1\Oc2ccc(OC)cc2S1(=O)=O
- GI50 [1]: > 100 µM (inactive)
- GI50 [2]: > 100 µM (inactive)
- GI50 [4]: > 100 µM (inactive)
- GI50 [5]: > 100 µM (inactive)
- GI50 [6]: > 100 µM (inactive)
- GI50 [8]: > 100 µM
- GI50 [9]: > 100 µM (inactive)
- GI50 [10]: > 100 µM (inactive)
- GI50 [12]: > 100 µM (inactive)
- GI50 [13]: > 100 µM (inactive)
- GI50 [14]: > 100 µM (inactive)
- GI50 [16]: > 100 µM (inactive)
- GI50 [17]: > 100 µM (inactive)
- GI50 [18]: > 100 µM (inactive)
- GI50 [19]: > 100 µM (inactive)
- GI50 [20]: > 100 µM (inactive)

Structure (SMILES): CC(C)CC1CC2C(=O)N(c3ccccc3)C(=O)C2c2[nH]c3ccccc3c21 (configuration not stated)
- GI50 [1]: > 36.3 µM (inactive)
- GI50 [2]: 22.4 µM (inactive)
- GI50 [4]: 18.7 µM (inactive)
- GI50 [5]: 16 µM (inactive)
- GI50 [6]: 26.9 µM (inactive)
- GI50 [8]: 17.3 µM
- GI50 [9]: 18.8 µM (inactive)
- GI50 [10]: 18.6 µM (inactive)
- GI50 [12]: 13.1 µM (inactive)
- GI50 [13]: 8.3 µM (inactive)
- GI50 [14]: > 100 µM (inactive)
- GI50 [16]: 27 µM (inactive)
- GI50 [17]: 40.9 µM (inactive)
- GI50 [18]: 13.1 µM (inactive)
- GI50 [19]: 10.4 µM (inactive)
- GI50 [20]: 23.8 µM (inactive)

Structure (SMILES): C=C(CN(CC(=C)C(=O)c1ccccc1)C(C)(C)C)C(=O)c1ccccc1
- GI50 [1]: 18.3 µM (inactive)
- GI50 [2]: 28.4 µM (inactive)
- GI50 [4]: 4.28 µM (inactive)
- GI50 [5]: 1.5 µM (inactive)
- GI50 [6]: 16.7 µM (inactive)
- GI50 [7]: 19.6 µM (inactive)
- GI50 [10]: 5.62 µM (inactive)
- GI50 [12]: 13.8 µM (inactive)
- GI50 [13]: 11.6 µM (inactive)
- GI50 [14]: 19.6 µM (inactive)
- GI50 [16]: 16.5 µM (inactive)
- GI50 [17]: 23.3 µM (inactive)
- GI50 [18]: 12.8 µM (inactive)
- GI50 [19]: 2.1 µM (inactive)
- GI50 [20]: 2.82 µM (inactive)

Structure (SMILES): COc1cccc2c1C(=O)c1c(O)c3c(c(O)c1C2=O)C[C@@](O)(C(C)=O)C[C@@H]3OC1OC(C)C(O)C(N)C1Br (some centres not stated)
- GI50 [1]: 0.133 µM (active)
- GI50 [2]: 0.0202 µM (active)
- GI50 [3]: 0.269 µM (active)
- GI50 [4]: 0.0139 µM (active)
- GI50 [5]: 0.00414 µM (active)
- GI50 [6]: 0.0078 µM (active)
- GI50 [7]: 0.0475 µM (active)
- GI50 [8]: 0.132 µM
- GI50 [9]: 0.0147 µM (active)
- GI50 [10]: 0.0486 µM (active)
- GI50 [11]: 0.208 µM (active)
- GI50 [12]: 0.136 µM (active)
- GI50 [13]: 0.185 µM (active)
- GI50 [14]: 0.28 µM (active)
- GI50 [15]: 0.138 µM (active)
- GI50 [16]: 0.318 µM (active)
- GI50 [17]: 0.0412 µM (active)
- GI50 [18]: 0.0029 µM (active)
- GI50 [19]: 0.00497 µM (active)
- GI50 [20]: 0.0177 µM (active)
